Experimental data published in patent publication US20250360091A1, “COMBINATION OF SGLT2 INHIBITOR AND MENTHOL AND USE THEREOF IN TREATMENT OF HEART DISEASE” (EAST CHINA UNIVERSITY OF SCIENCE AND TECHNOLOGY, priority 2023, published 2025).

Key:
[1] = test system: intracellular calcium concentration; assay: Intracellular calcium ion concentration with calcium probe Fluo4-AM (Example 5); format: cell-based; conditions: cariporide 100 μM, empagliflozin 50 μM, menthol 200 μM, combination 50 μM + 200 μM
From the text: Intracellular calcium overload is an important factor in the transition of myocardial cells from reversible to irreversible damage. Intracellular calcium overload can be seen in a variety of cardiac pathological states, such as cardiac remodeling, myocardial ischemia-reperfusion injury, viral myocarditis, dilated cardiomyopathy, arrhythmias, and congestive heart failure. […] Empagliflozin can act on the sodium-hydrogen exchanger 1 (NHE1) on the myocardial cell membrane. When myocardial ischemia occurs, myocardial cell energy metabolism is impaired, and myocardial cells switch from fatty acid metabolism to sugar-free glycolysis, producing a large amount of lactic acid, which reduces the intracellular pH. As a regulatory protein for cell pH homeostasis, NHE1 can transport H^+ out of the cell by exchanging extracellular sodium ions, resulting in an increase in the intracellular sodium ion concentration. […] When mitochondrial function is impaired, the release of ROS increases, and ROS can further stimulate L-type calcium channels, promoting Ca^2+ influx, creating a vicious cycle. Empagliflozin inhibits the activity of NHE1 and can indirectly reduce the intracellular calcium ion concentration. Menthol, as an L-type calcium channel blocker, can synergistically reduce the intracellular calcium ion concentration with empagliflozin, playing a synergistic role. In order to verify this synergistic mechanism, the intracellular calcium ion concentration was detected using the calcium ion probe Fluo4-AM.
The experiment was divided into 5 groups, including control group (no drug group), cariporide group (positive control group, 100 μM), EMPA-50 (empagliflozin, 50 μM), M-200 (menthol, 200 μM), and E50+M200 (combination of 50 μM empagliflozin and 200 μM menthol).
• (1) Take an appropriate amount of Fluo4-AM stock solution (2 mM, BeyoTime, S1060) and dilute it to a 10 μM working solution with HBSS; • (2) For the cells to be tested (covering the bottom of the dish), remove the culture medium and wash with HBSS three times; • (3) Add 25 μL of Fluo4-AM working solution to each well, and then add 25 μL of compound solution to each well; • (4) Incubate at 37° C. for 30 min for fluorescent probe loading; • (5) Wash three times with HBSS, and add 100 μL of HBSS containing 10 mM CaCl2) to each well. Detect quantitatively the fluorescence of Fluo4-AM using a multifunctional fluorescence microplate reader (excitation wavelength 488 nm, emission wavelength 520 nm) to determine the changes in intracellular calcium ions.
Since empagliflozin indirectly affects intracellular calcium concentration by inhibiting NHE1, the intracellular environment was made acidic by using ammonium chloride solution to simulate the environment during myocardial ischemia, and the effect of the administered composition on intracellular calcium ions was tested. The NHE1 inhibitor cariporide was used as a positive control. The above step (3) was changed to add 25 μL of Fluo4-AM working solution to each well, mix the test compound with 80 mM NH4Cl solution at a 1:1 ratio, and then add 25 μL mixed solution of the compound and NH4Cl to each well (the final concentration of NH4Cl was 20 mM), and the remaining steps were the same as above.

H9c2 cells = assay: Oil Red O staining of palmitic acid-induced lipid accumulation (Example 6); format: cell-based, Rat; conditions: used alone: EMPA 50 or 100 μM, MEN 200 μM; 24 h after 200 μM palmitic acid 48 h
Method: 1. Oil Red O staining. H9c2 cells were seeded in 12-well plates (1×10^5 cells per well) and cultured to 80-90% confluence. The cells were incubated with lipid medium containing 200 μM palmitic acid (Sigma-Aldrich, P0500) for 48 h to induce lipid droplet accumulation. The lipid medium was removed, and the cells were cultured for 24 h with medium containing 50 μM EMPA (E50, EMPA-50), 100 μM EMPA (E100), 200 μM MEN (M200), and 50 μM EMPA+200 μM MEN (E50+M200) but without palmitic acid. After the incubation, the cells were stained with Oil Red. The cells were washed 3 times with PBS and fixed with 4% paraformaldehyde at room temperature for 30 min. They were washed again with PBS 3 times and incubated with Oil Red O working solution at room temperature for 30 min. After rinsing with PBS 3 times, the cells were imaged under a microscope. The red area (positive area of lipid accumulation) was measured using Image J software package. The experiment was divided into 6 groups, black group (blank group, not treated with lipid medium and drugs), control group (control group, treated with lipid medium but not treated with drugs), E50 group (treated with lipid medium and then 50 μM EMPA), E100 (treated with lipid medium and then 100 μM EMPA), M200 (treated with lipid medium and then 200 μM menthol), E50+M200 (treated with lipid medium and then 50 μM empagliflozin+200 μM menthol).

[2] = NH4Cl present (20 mM, acidic intracellular conditions)

Row | Structure (SMILES) | effect on intracellular calcium concentration (Fluo4-AM fluorescence) [1, 2] | effect on intracellular calcium concentration (Fluo4-AM fluorescence) ([1]; absence of NH4Cl) | lipid accumulation in cardiomyocytes (Oil Red O staining area) (H9c2 cells)
1 | OC[C@H]1O[C@@H](c2ccc(Cl)c(Cc3ccc(O[C@H]4CCOC4)cc3)c2)[C@H](O)[C@@H](O)[C@@H]1O [empagliflozin] | significantly reduce intracellular calcium concentration | almost no effect | significantly reduce lipid accumulation
2 | CC(C)[C@@H]1CC[C@@H](C)C[C@H]1O [menthol, L-menthol] | weak effect of reducing intracellular calcium concentration | weak inhibitory effect | significantly reduce lipid accumulation
